Experimental data as given in patent US11633377B2, “Treatment of circadian rhythm disorders” (Vanda Pharmaceuticals Inc., priority 2012, dated 2023).
Like-named read-outs stand apart in the source and are kept apart here. Each block holds one compound with its values, some of them ahead of it.

Legend:
[1] = Solubility and pH of saturated solution; type: physicochemical
[2] = system: blind individuals with Non-24; experiment: RESET Study: randomized withdrawal study, maintenance of effect in Non-24; type: in vivo, human
Procedure: Patients were treated with tasimelteon for at least twelve weeks during an open-label run-in phase during the SET Study. Patients who responded to tasimelteon treatment during the run-in phase were then randomized to receive either placebo or tasimelteon (20 mg/day) for 2 months.
The primary endpoint of the RESET Study was the maintenance of effect as measured by entrainment of the melatonin (aMT6s) rhythm.
The RESET study also assessed a number of secondary endpoints including maintenance of entrainment of the cortisol rhythm and a range of sleep and wake parameters including LQ-nTST (total nighttime sleep in the worst 25% of nights), UQ-dTSD (total daytime sleep duration in the worst 25% of days) and MoST (midpoint of sleep timing from both nighttime and daytime sleep).

[3] = system: patients with Non-24; experiment: SET Study: Phase III randomized, double-masked, placebo-controlled study in Non-24; type: in vivo, human
Procedure: Specifically, patients were orally administered 20 mg tasimelteon per day for at least 12 weeks prior to re-estimating tau. Patients were selected for randomization or open label based on baseline tau estimates. Drug was administered at about 1 hour prior to target sleep time, as determined by patients based on a 9 hour nighttime sleep period.
The SET study was an 84 patient randomized, double-masked, placebo-controlled study in patients with Non-24. The primary endpoints for this study were Entrainment of the melatonin (aMT6s) rhythm to the 24-hour clock and Clinical Response as measured by Entrainment plus a score of greater than or equal to 3 on the following N24CRS:
The SET study also assessed a number of secondary endpoints including Entrainment of cortisol rhythm and a broad range of clinical sleep and wake parameters. These parameters included improvement in the total nighttime sleep in the worst 25% of nights (LQ-nTST), decrease in the total daytime sleep duration in the worst 25% of days (UQ-dTSD) and midpoint of sleep timing (MoST) which is derived from a combination of the sleep reported for both nighttime and daytime. CGI-C is a seven-point rating scale of global functioning with lower scores indicating larger improvements.

[4] = Effect of fluvoxamine co-administration on tasimelteon pharmacokinetics; type: in vivo, human; conditions: for AUC: both sexes, human, in vivo
Procedure: Twenty-four healthy male or female subjects between the ages of 18 and 55 years of age (inclusive) who were non-smokers with a body mass index (BMI) of 18 and 35 kg/m2 participated in this open-label, single-sequence study conducted at one site. On day 1, subjects were administered 5.667 mg of tasimelteon.

[5] = system: Non-24 patients; experiment: Entrainment by baseline peak aMT6s and beta blocker status (clinical studies); type: in vivo, human
Procedure: Results of clinicalstudy also show a strong correlation between endogenous melatonin and efficacy of tasimelteon in entraining patients to a 24 hour circadian rhythm. The following table (Table 3A) compares the peak aMT6s levels in the 24 entrained and 23 non-entrained patients.
Data from these studies currently available also indicate that beta blocker therapy is […] related to efficacy of tasimelteon, i.e., patients receiving beta blocker therapy were less likely to become entrained than patients who were not.

[6] = target: T1, Mel1b (MT2R) (Homo sapiens, UniProt P49286); experiment: Affinity (Ki) for melatonin receptor MT2R; type: binding; conditions: MT2R vs MT1R
T1 sequence (P49286 1-362): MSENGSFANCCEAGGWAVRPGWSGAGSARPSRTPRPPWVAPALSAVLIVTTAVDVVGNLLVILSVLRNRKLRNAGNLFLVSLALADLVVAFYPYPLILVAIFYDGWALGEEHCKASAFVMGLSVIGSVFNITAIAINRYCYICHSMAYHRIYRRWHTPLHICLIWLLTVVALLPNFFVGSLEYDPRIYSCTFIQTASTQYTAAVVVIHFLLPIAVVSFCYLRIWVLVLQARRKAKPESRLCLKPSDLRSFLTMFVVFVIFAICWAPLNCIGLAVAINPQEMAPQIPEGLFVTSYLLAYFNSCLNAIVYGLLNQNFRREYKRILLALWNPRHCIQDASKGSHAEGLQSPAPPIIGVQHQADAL

[7] = tmax after administration; type: in vivo, human; conditions: tasimelteon
[8] = Effect of smoking on concentration of tasimelteon and metabolites; type: in vivo, human
Text: Smokers were defined as those smoking 10 or more cigarettes per day. Non-smokers were defined as those smoking no cigarettes per day.

[9] = Day 8 (with fluvoxamine) vs Day 1
[10] = Day 1: 5.667 mg tasimelteon alone
[11] = fluvoxamine + tasimelteon vs tasimelteon alone
[12] = Day 8: 5.667 mg tasimelteon + 50 mg fluvoxamine

native pH of a saturated solution in water [1]: 8.5 | Geometric Mean Ratio, AUC [4, 9]: 653.36% | Geometric Mean Ratio, CL/F [4, 9]: 15.31% | Geometric Mean Ratio, Cmax [4, 9]: 232.74% | Geometric Mean Ratio, t1/2 [4, 9]: 211.82% | AUC [4, 10]: 102 ± 61.5 ng·h/mL | AUC)-inf increase upon co-administration of fluvoxamine [4, 11]: approximately 7 fold | Cmax increase upon co-administration of fluvoxamine [4, 11]: approximately 2 fold | greater affinity for MT2R relative to MT1R [6]: 2-4 times | tmax [7]: approximately one-half | CL/F ([8]; Non-Smokers): 1,482 ± 1,008 mL/mm | CL/F ([8]; Smokers): 2,290 ± 1,232 mL/mm | Geometric Mean Ratio, AUC (inf) ([8]; Smokers vs Non-Smokers): 60.14% | Geometric Mean Ratio, CL/F ([8]; Smokers vs Non-Smokers): 166.27% | Geometric Mean Ratio, Cmax ([8]; Smokers vs Non-Smokers): 63.98% | Geometric Mean Ratio, Vz/F ([8]; Smokers vs Non-Smokers): 144.39% | Geometric Mean Ratio, t1/2 ([8]; Smokers vs Non-Smokers): 86.84%
Compound: CCC(=O)NC[C@@H]1C[C@H]1c1cccc2c1CCO2 (relative stereo) [Tasimelteon, trans-N-[[2-(2,3-dihydrobenzofuran-4-yl)cycloprop-1yl]methyl]propanamide]
time to relapse analysis ([2]; 45 min decrement of weekly average nighttime sleep, P=0.0907): placebo treated patients relapsed in higher numbers and at an earlier time than tasimelteon treated patients | Maintenance of entrainment (aMT6s) ([2]; RESET, 20 mg/day): 90.0% | maintenance of entrainment (cortisol) ([2]; RESET, 20 mg/day): 80.0% | MoST (LS mean minutes), Difference ([2]; RESET, tasimelteon vs placebo): 36.0 min | maintenance of entrainment (cortisol), Difference ([2]; RESET, tasimelteon vs placebo): 60.0% | Clinical Response 2 (Entrainment + N24CRS >=2) ([3]; 20 mg/day oral): 28.9% | Entrainment (aMT6s) ([3]; 20 mg/day oral): 20.0% | LQ-nTST (LS mean minutes) ([3]; LS mean): 57.0 min | CGI-C (LS mean minutes) ([3]; LS mean, smaller numbers indicate improvement): 2.6 min | LQ-nTST and UQ-dTSD >=90 mm ([3]; only subjects with significant sleep and nap problems at baseline): 23.8% | Entrained, number of patients [5]: 13 | Non-entrained, number of patients [5]: 21 | Entrained, % of patients ([5]; Peak aMT6s <1500 ng/hr): 41% | Entrained, number of patients ([5]; Peak aMT6s <1500 ng/hr): 12 | Non-entrained, % of patients ([5]; Peak aMT6s <1500 ng/hr): 59% | Non-entrained, number of patients ([5]; Peak aMT6s <1500 ng/hr): 17 | Entrained, % of patients ([5]; Peak aMT6s <12000 ng/hr): 38% | Non-entrained, % of patients ([5]; Peak aMT6s <12000 ng/hr): 62% | Entrained, % of patients ([5]; Peak aMT6s >1500 ng/hr): 67% | Entrained, number of patients ([5]; Peak aMT6s >1500 ng/hr): 12 | Non-entrained, % of patients ([5]; Peak aMT6s >1500 ng/hr): 33% | Non-entrained, number of patients ([5]; Peak aMT6s >1500 ng/hr): 6 | Entrained, % of patients ([5]; Peak aMT6s >2000 ng/hr): 85% | Entrained, number of patients ([5]; Peak aMT6s >2000 ng/hr): 11 | Non-entrained, % of patients ([5]; Peak aMT6s >2000 ng/hr): 15% | Non-entrained, number of patients ([5]; Peak aMT6s >2000 ng/hr): 2 | Entrained, % of patients ([5]; Peak aMT6s All): 51% | Entrained, number of patients ([5]; Peak aMT6s All): 24 | Non-entrained, % of patients ([5]; Peak aMT6s All): 49% | Non-entrained, number of patients ([5]; Peak aMT6s All): 23 | Entrained, number of patients ([5]; Taking Beta Blocker: No): 24 | Non-entrained, number of patients ([5]; Taking Beta Blocker: No): 19 | Entrained, number of patients ([5]; Taking Beta Blocker: Yes): 0 | Non-entrained, number of patients ([5]; Taking Beta Blocker: Yes): 4

Geometric Mean Ratio, AUC [4, 9]: 122.56% | Geometric Mean Ratio, Cmax [4, 9]: 64.94% | Geometric Mean Ratio, t1/2 [4, 9]: 328.02% | AUC [4, 10]: 104 ± 30 ng·h/mL | Geometric Mean Ratio, AUC (inf) ([8]; Smokers vs Non-Smokers): 74.36% | Geometric Mean Ratio, Cmax ([8]; Smokers vs Non-Smokers): 77.18% | Geometric Mean Ratio, t1/2 ([8]; Smokers vs Non-Smokers): 85.40%
Compound: CCC(=O)NC[C@@H]1C[C@H]1c1cccc(O)c1CC(=O)O [M9]

AUC (ml) [4, 10]: 106 ± 32.6 ng·h/mL | Geometric Mean Ratio, AUC [4, 9]: 125.05% | Geometric Mean Ratio, Cmax [4, 9]: 69.31% | Geometric Mean Ratio, t1/2 [4, 9]: 349.81% | AUC (ml) [4, 12]: 133 ± 32.9 ng·h/mL | Geometric Mean Ratio, AUC (inf) ([8]; Smokers vs Non-Smokers): 97.31% | Geometric Mean Ratio, Cmax ([8]; Smokers vs Non-Smokers): 99.49% | Geometric Mean Ratio, t1/2 ([8]; Smokers vs Non-Smokers): 77.51%
Compound: CCC(=O)NCC1CC1c1cccc2c1CC(O)O2 (centres unmarked) [M13]

Second part, the compound before the results:

Compound: CCC(=O)NCC1CC1c1cccc2c1C(O)CO2 (centres unmarked) [M14]
AUC (ml) [4, 10]: 4.54 ± 2.39 ng·h/mL | Geometric Mean Ratio, AUC [4, 9]: 944.73% | Geometric Mean Ratio, Cmax [4, 9]: 264.58% | Geometric Mean Ratio, t1/2 [4, 9]: 243.34% | AUC (ml) [4, 12]: 42.6 ± 27.3 ng·h/mL | Geometric Mean Ratio, AUC (inf) ([8]; Smokers vs Non-Smokers): 42.98% | Geometric Mean Ratio, Cmax ([8]; Smokers vs Non-Smokers): 60.17% | Geometric Mean Ratio, t1/2 ([8]; Smokers vs Non-Smokers): 65.09%

Compound: CCC(=O)NCC1CC1c1cccc2c1C(O)CO2 (centres unmarked) [M12]
AUC (ml) [4, 10]: 189 ± 90.8 ng·h/mL | Geometric Mean Ratio, AUC [4, 9]: 274.81% | Geometric Mean Ratio, Cmax [4, 9]: 92.74% | Geometric Mean Ratio, t1/2 [4, 9]: 241.02% | AUC (ml) [4, 12]: 435 ± 109.3 ng·h/mL | Geometric Mean Ratio, AUC (inf) ([8]; Smokers vs Non-Smokers): 84.87% | Geometric Mean Ratio, Cmax ([8]; Smokers vs Non-Smokers): 115.53% | Geometric Mean Ratio, t1/2 ([8]; Smokers vs Non-Smokers): 73.31%

Compound: CCC(=O)NC[C@@H]1C[C@H]1c1cccc(O)c1CCO [M11]
Geometric Mean Ratio, AUC [4, 9]: 126.03% | Geometric Mean Ratio, Cmax [4, 9]: 68.71% | Geometric Mean Ratio, t1/2 [4, 9]: 248.35% | AUC [4, 10]: 44.5 ± 17.2 ng·h/mL | Geometric Mean Ratio, AUC (inf) ([8]; Smokers vs Non-Smokers): 81.84% | Geometric Mean Ratio, Cmax ([8]; Smokers vs Non-Smokers): 84.50% | Geometric Mean Ratio, t1/2 ([8]; Smokers vs Non-Smokers): 94.13%
